The results in this text go back to the supplement of paper PMC12463676, “Small-molecule dissolution of stress granules by redox modulation benefits ALS models” (Nature Chemical Biology, 2025).

Compound in assay [1]: NC(=O)CCCCC1CCSS1 [lipoamide]
Briefly: thermal stability z-score vs DMSO; higher = more thermally stabilized by treatment. The following applies: HeLa, lipoamide concentration 100 µM. As for the experimental part:
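Cellular thermal proteome profiling in HeLa cells. Cells were treated with 100 µM lipoamide for 1 h, with or without 1 mM arsenate for a further 1 h, then heated to ten temperatures (37-66.3 °C), and soluble protein was quantified by TMT mass spectrometry relative to 0.1% DMSO controls. The thermal stability score (sum of log2 fold changes minus the abundance score) was transformed to a z-score; mean of n = 3 experiments.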

Compound in assay [2]: O=[As]([O-])(O)O.[K+] [potassium arsenate]
The assay is described as above. Particulars: HeLa; arsenate concentration 1 mM. As for the experimental part: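 Cellular thermal proteome profiling in HeLa cells treated with 1 mM arsenate for 1 h (DMSO pretreatment), heated to ten temperatures (37-66.3 °C). Soluble protein was quantified by TMT mass spectrometry relative to DMSO controls; the thermal stability score was transformed to a z-score; mean of n = 3 experiments.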

Where [3] appears, read: arsenate co-treatment: 1 mM arsenate 1 h.
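Further: each temperature applied for 3 min, abundance score taken as mean log2 fold change at the two lowest temperatures, z-score obtained by mean subtraction and division by SD.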

Chain of UniProt Q9Y546 (Q9Y546 whole entry): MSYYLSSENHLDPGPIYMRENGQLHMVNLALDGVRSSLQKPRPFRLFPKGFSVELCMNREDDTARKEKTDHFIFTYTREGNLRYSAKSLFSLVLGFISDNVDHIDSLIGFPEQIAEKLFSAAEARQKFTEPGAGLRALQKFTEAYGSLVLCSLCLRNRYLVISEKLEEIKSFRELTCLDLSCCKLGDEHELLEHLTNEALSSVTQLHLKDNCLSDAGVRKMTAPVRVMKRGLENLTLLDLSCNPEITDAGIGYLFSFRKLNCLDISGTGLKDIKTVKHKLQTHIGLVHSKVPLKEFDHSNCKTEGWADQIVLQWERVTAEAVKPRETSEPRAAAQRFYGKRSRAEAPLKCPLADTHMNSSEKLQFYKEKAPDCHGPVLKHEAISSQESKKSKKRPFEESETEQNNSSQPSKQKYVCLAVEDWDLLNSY
Chain of UniProt Q8TC12 (Q8TC12 whole entry): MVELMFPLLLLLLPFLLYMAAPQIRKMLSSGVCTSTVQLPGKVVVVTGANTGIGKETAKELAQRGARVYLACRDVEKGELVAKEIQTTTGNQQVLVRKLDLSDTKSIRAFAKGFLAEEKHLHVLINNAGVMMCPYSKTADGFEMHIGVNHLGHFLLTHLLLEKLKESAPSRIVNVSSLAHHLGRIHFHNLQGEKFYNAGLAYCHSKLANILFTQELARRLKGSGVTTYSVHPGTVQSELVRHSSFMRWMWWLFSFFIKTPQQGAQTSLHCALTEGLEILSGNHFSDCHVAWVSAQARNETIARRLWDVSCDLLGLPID
Chain of UniProt Q15904 (Q15904 whole entry): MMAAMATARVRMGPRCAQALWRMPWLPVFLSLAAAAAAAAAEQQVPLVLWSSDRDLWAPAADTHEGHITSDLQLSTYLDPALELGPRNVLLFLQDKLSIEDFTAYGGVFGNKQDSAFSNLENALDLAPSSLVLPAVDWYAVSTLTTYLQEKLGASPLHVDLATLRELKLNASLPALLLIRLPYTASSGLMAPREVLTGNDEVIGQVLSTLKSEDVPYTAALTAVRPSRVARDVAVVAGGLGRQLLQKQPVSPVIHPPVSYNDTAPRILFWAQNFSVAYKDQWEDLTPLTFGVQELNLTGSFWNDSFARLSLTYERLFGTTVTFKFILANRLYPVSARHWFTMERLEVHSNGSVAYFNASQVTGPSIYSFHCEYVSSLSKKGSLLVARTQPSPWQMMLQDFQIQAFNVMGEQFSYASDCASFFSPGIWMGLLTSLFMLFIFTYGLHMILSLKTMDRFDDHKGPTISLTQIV
Chain of UniProt Q13243 (Q13243 whole entry): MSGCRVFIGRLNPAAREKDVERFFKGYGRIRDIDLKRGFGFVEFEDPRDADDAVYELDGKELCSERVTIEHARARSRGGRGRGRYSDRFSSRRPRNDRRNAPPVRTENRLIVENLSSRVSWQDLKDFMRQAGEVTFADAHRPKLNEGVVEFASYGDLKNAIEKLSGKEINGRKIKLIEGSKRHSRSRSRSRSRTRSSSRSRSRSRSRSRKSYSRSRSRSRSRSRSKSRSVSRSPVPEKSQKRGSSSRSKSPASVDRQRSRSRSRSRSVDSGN
Chain of UniProt P32322 (P32322 whole entry): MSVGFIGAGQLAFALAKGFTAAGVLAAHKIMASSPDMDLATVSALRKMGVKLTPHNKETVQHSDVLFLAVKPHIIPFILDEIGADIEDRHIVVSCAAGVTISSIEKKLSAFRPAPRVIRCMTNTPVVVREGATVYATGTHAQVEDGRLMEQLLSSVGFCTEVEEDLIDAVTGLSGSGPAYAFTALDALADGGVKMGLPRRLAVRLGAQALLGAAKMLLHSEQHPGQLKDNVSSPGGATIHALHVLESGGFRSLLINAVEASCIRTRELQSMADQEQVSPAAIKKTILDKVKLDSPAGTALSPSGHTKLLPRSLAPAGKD
Chain of UniProt Q5T0F9 (Q5T0F9 whole entry): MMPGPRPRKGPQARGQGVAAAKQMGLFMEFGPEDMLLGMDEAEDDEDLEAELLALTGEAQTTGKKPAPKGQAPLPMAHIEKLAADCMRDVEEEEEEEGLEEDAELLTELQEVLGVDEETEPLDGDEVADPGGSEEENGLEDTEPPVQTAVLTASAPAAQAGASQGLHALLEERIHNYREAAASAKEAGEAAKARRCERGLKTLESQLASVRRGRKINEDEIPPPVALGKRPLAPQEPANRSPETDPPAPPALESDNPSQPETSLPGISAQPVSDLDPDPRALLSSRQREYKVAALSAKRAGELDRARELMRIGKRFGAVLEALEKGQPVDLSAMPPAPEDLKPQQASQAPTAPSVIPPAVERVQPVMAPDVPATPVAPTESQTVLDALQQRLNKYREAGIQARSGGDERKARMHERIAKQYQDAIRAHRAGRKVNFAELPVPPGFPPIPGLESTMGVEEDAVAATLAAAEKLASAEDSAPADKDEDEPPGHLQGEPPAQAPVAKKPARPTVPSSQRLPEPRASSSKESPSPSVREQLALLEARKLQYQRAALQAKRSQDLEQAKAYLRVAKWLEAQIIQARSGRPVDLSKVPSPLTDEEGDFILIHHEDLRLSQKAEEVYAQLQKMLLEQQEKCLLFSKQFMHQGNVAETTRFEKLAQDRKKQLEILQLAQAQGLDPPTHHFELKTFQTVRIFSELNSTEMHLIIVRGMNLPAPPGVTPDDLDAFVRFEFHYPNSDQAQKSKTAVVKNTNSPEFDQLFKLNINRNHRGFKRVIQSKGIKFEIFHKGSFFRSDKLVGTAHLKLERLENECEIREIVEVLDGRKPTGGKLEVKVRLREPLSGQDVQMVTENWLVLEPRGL
Chain of UniProt Q15819 (Q15819 whole entry): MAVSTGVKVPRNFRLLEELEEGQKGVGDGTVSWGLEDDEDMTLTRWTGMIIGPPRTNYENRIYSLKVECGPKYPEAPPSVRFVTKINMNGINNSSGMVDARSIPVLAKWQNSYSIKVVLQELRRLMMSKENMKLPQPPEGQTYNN
Chain of UniProt Q66K14 (Q66K14 whole entry): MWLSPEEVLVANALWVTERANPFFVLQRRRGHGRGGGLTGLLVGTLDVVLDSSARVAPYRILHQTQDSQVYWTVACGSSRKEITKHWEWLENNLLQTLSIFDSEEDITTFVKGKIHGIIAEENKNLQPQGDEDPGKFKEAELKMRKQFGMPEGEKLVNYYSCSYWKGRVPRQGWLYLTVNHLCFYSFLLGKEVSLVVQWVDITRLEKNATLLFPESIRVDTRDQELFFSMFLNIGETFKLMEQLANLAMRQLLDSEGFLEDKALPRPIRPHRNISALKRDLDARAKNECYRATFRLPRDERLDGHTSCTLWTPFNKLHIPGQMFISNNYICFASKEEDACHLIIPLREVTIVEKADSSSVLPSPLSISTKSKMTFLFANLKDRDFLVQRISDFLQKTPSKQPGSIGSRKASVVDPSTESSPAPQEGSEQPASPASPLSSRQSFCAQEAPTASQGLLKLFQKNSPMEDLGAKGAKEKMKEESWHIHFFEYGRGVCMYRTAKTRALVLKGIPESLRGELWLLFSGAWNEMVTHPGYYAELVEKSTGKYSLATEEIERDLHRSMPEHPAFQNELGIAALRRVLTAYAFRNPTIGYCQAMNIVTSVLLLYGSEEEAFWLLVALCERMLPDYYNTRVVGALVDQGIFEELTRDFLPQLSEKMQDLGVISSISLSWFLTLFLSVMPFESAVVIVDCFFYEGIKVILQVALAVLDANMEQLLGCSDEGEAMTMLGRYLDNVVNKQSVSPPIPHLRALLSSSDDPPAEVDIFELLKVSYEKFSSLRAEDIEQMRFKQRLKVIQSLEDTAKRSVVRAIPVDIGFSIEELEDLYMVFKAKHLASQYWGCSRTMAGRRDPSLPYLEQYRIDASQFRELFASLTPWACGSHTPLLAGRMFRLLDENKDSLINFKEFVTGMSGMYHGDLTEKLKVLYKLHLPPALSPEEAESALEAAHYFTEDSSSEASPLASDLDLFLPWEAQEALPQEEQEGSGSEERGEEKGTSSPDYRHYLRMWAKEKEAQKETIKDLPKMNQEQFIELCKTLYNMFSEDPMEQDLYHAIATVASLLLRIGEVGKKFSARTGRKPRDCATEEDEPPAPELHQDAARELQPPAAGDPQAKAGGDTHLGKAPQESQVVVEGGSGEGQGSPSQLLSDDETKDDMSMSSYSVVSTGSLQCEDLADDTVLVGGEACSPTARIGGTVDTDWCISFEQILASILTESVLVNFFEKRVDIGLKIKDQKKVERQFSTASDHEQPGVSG
Chain of UniProt Q9UBP0 (Q9UBP0 whole entry): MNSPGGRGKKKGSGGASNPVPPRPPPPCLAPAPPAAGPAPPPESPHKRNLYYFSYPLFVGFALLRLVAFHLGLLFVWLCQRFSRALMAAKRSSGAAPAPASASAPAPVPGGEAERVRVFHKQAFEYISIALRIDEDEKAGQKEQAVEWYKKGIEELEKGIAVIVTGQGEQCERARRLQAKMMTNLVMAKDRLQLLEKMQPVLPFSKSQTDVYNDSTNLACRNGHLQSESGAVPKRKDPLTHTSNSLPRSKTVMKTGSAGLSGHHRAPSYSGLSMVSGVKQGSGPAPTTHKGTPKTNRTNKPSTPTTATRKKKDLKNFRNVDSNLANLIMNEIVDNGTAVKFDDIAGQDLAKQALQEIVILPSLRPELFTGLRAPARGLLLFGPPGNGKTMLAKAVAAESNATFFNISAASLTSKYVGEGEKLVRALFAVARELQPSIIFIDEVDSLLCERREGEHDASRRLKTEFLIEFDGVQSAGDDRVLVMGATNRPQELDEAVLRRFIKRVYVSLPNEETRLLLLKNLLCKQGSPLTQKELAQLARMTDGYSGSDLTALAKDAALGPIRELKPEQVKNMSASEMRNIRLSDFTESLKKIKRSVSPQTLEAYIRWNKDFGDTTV
Chain of UniProt Q99627 (Q99627 whole entry): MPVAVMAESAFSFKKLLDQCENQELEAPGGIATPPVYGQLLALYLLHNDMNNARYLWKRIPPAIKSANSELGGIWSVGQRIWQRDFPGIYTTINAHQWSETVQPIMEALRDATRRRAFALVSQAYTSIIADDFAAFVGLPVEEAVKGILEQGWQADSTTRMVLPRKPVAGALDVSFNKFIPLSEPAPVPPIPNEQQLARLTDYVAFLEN

For the target ALDH7A1 (UniProt P49419), the thermal stability z-score was found to be 1.36 in assay [1] (setting [3]), 0.584 in assay [1] (arsenate co-treatment: none) and 0.994 in assay [2].

Turning to ATP6AP1 (UniProt Q15904), the thermal stability z-score in assay [1] (setting [3]) was -0.952; in assay [1] (arsenate co-treatment: none), -0.601; in assay [2] it was 0.569.

KATNA1 (UniProt O75449): the results for the thermal stability z-score in assay [1] (setting [3]), in assay [1] (arsenate co-treatment: none) and in assay [2] were -0.664, 0.155 and -0.539, respectively.

With TMA16 (UniProt Q96EY4), the thermal stability z-score in assay [1] (setting [3]) is -0.345; in assay [1] (arsenate co-treatment: none) it was -0.0887; in assay [2], -0.0752.

On to POLR1B (UniProt Q9H9Y6), for which the thermal stability z-score in assay [1] (setting [3]) was 0.138; in assay [1] (arsenate co-treatment: none), -0.017; in assay [2] it was -1.91.

As for YEATS4 (UniProt O95619), the thermal stability z-score is 0.802 in assay [1] (setting [3]), 0.865 in assay [1] (arsenate co-treatment: none) and -0.33 in assay [2].

Take PEPD (UniProt P12955): the thermal stability z-score in assay [1] (setting [3]) is 0.359; in assay [1] (arsenate co-treatment: none), 0.112; in assay [2], -0.732.

With COPS8 (UniProt Q99627), the figures for the thermal stability z-score in assay [1] (setting [3]), in assay [1] (arsenate co-treatment: none) and in assay [2] were 0.0678, -0.053 and 0.171, respectively.

Turning to ATP2C1 (UniProt P98194), the thermal stability z-score in assay [1] (setting [3]) is -1.04; in assay [1] (arsenate co-treatment: none) it was -0.728; in assay [2] it was -1.37.

As to SPATA5L1 (UniProt Q9BVQ7), the results for the thermal stability z-score in assay [1] (setting [3]), in assay [1] (arsenate co-treatment: none) and in assay [2] were 0.441, 0.172 and 0.487, respectively.

SPAST (UniProt Q9UBP0): the thermal stability z-score in assay [1] (setting [3]) is -0.179; in assay [1] (arsenate co-treatment: none), 0.818; in assay [2], 0.604.

Regarding CDIPT (UniProt O14735), the values for the thermal stability z-score in assay [1] (setting [3]), in assay [1] (arsenate co-treatment: none) and in assay [2] were 1.05, 0.638 and -0.187, respectively.

Consider EML2 (UniProt O95834), for which the thermal stability z-score was 1.13 in assay [1] (setting [3]), 0.223 in assay [1] (arsenate co-treatment: none) and -0.718 in assay [2].

Consider CCDC91 (UniProt Q7Z6B0), for which the thermal stability z-score in assay [1] (setting [3]) amounted to 0.136; in assay [1] (arsenate co-treatment: none), 0.181; in assay [2], 1.21.

Turning to ZNF428 (UniProt Q96B54), the thermal stability z-score was found to be 1.64 in assay [1] (setting [3]), 2.65 in assay [1] (arsenate co-treatment: none) and 1.85 in assay [2].

Regarding WAC (UniProt Q9BTA9), the figures for the thermal stability z-score in assay [1] (setting [3]), in assay [1] (arsenate co-treatment: none) and in assay [2] were 0.192, 0.112 and 0.126, respectively.

Take PYCR1 (UniProt P32322): the results for the thermal stability z-score in assay [1] (setting [3]), in assay [1] (arsenate co-treatment: none) and in assay [2] were -0.0172, -0.299 and -0.368, respectively.

On to SH3GLB1 (UniProt Q9Y371), for which the figures for the thermal stability z-score in assay [1] (setting [3]), in assay [1] (arsenate co-treatment: none) and in assay [2] were -0.179, -0.0481 and 0.658, respectively.

As for LGALSL (UniProt Q3ZCW2), the thermal stability z-score in assay [1] (setting [3]) worked out at 0.209; in assay [1] (arsenate co-treatment: none) it was 0.257; in assay [2], 0.19.

Regarding FXR2 (UniProt P51116), the results for the thermal stability z-score in assay [1] (setting [3]), in assay [1] (arsenate co-treatment: none) and in assay [2] were 0.0778, 0.0347 and 0.783, respectively.

With GINS2 (UniProt Q9Y248), the thermal stability z-score in assay [1] (setting [3]) was -0.0167; in assay [1] (arsenate co-treatment: none), 0.00771; in assay [2] it was 0.0793.

On to UBE2V2 (UniProt Q15819), for which the thermal stability z-score was 0.177 in assay [1] (setting [3]), -0.304 in assay [1] (arsenate co-treatment: none) and -0.0935 in assay [2].

On to MYO5C (UniProt Q9NQX4), for which the values for the thermal stability z-score in assay [1] (setting [3]), in assay [1] (arsenate co-treatment: none) and in assay [2] were 0.173, 0.236 and 0.0128, respectively.

Consider PHKA2 (UniProt P46019), for which the thermal stability z-score in assay [1] (setting [3]) was -0.174; in assay [1] (arsenate co-treatment: none) it was 0.096; in assay [2], -0.0062.

On to EIF4G2 (UniProt P78344), for which the thermal stability z-score in assay [1] (setting [3]) was -0.0525; in assay [1] (arsenate co-treatment: none) it was 0.548; in assay [2] it was 0.233.

As to CC2D1B (UniProt Q5T0F9), the results for the thermal stability z-score in assay [1] (setting [3]), in assay [1] (arsenate co-treatment: none) and in assay [2] were -0.661, -0.8 and -0.125, respectively.

As to NENF (UniProt Q9UMX5), the figures for the thermal stability z-score in assay [1] (setting [3]), in assay [1] (arsenate co-treatment: none) and in assay [2] were 0.318, -0.406 and -0.0969, respectively.

As for CPOX (UniProt P36551), the thermal stability z-score in assay [1] (setting [3]) is 0.526; in assay [1] (arsenate co-treatment: none), -0.338; in assay [2], -0.525.

For EEA1 (UniProt Q15075), the results for the thermal stability z-score in assay [1] (setting [3]), in assay [1] (arsenate co-treatment: none) and in assay [2] were 0.149, 0.231 and -0.325, respectively.

Turning to TBC1D9B (UniProt Q66K14), the values for the thermal stability z-score in assay [1] (setting [3]), in assay [1] (arsenate co-treatment: none) and in assay [2] were -0.357, -0.158 and -0.401, respectively.

Consider GTF2E1 (UniProt P29083), for which the results for the thermal stability z-score in assay [1] (setting [3]), in assay [1] (arsenate co-treatment: none) and in assay [2] were -0.0787, 0.126 and 0.733, respectively.

For the target RPS24 (UniProt P62847), the thermal stability z-score in assay [1] (setting [3]) is 0.103; in assay [1] (arsenate co-treatment: none) it was -0.101; in assay [2], -0.971.

DLG1 (UniProt Q12959): the thermal stability z-score was 0.111 in assay [1] (setting [3]), -0.207 in assay [1] (arsenate co-treatment: none) and -0.34 in assay [2].

For SRSF5 (UniProt Q13243), the thermal stability z-score in assay [1] (setting [3]) is 0.765; in assay [1] (arsenate co-treatment: none), 0.508; in assay [2], -1.82.

As to RRM2B (UniProt Q7LG56), the results for the thermal stability z-score in assay [1] (setting [3]), in assay [1] (arsenate co-treatment: none) and in assay [2] were 0.945, 0.415 and -0.703, respectively.

In the case of RDH11 (UniProt Q8TC12), the thermal stability z-score in assay [1] (setting [3]) was -0.514; in assay [1] (arsenate co-treatment: none) it was 0.808; in assay [2], 0.385.

For ATP6V1G1 (UniProt O75348), the thermal stability z-score in assay [1] (setting [3]) was found to be 0.563; in assay [1] (arsenate co-treatment: none) it was 0.473; in assay [2] it was 0.295.

Turning to EFCAB14 (UniProt O75071), the figures for the thermal stability z-score in assay [1] (setting [3]), in assay [1] (arsenate co-treatment: none) and in assay [2] were -0.971, -1.74 and 0.262, respectively.

Take RPS4X (UniProt P62701): the thermal stability z-score in assay [1] (setting [3]) was 0.35; in assay [1] (arsenate co-treatment: none), 0.0222; in assay [2] it was -0.997.

As to FBXL18 (UniProt Q96ME1), the results for the thermal stability z-score in assay [1] (setting [3]), in assay [1] (arsenate co-treatment: none) and in assay [2] were 0.241, 0.119 and -0.711, respectively.

For the target LRRC42 (UniProt Q9Y546), the thermal stability z-score was -0.294 in assay [1] (setting [3]), -0.0469 in assay [1] (arsenate co-treatment: none) and -0.0558 in assay [2].

As to HDAC4 (UniProt P56524), the thermal stability z-score was 0.426 in assay [1] (setting [3]), 0.45 in assay [1] (arsenate co-treatment: none) and -0.19 in assay [2].
